# Assays:
# Type in all cases: cell-based
# [1] = target: T1, pERK1/2 (Thr202/Tyr204), NCI-1H441 (KRAS G12V) (Homo sapiens, UniProt P01116, G12V); assay: Assay of intracellular pERK1/2 (Thr202/Tyr204) phosphorylation in NCI-H441 cells (KRAS G12V); conditions: pERK1/2, 2 days, read-out: NCI-H441 (KRAS G12V) IC50
# T1 construct: pERK1/2 HTRF read-out
# Summary of the method: (§1)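 Cells (10000-12000/well) exposed to 3-fold compound dilutions for 2 days at 37 °C, then lysed; pERK1/2 (Thr202/Tyr204) measured by HTRF with d2 and cryptate antibodies, 665/615 nm ratio.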
# [2] = target: T2, pERK1/2 (Thr202/Tyr204), PANC-1 (KRAS G121D) (Homo sapiens, UniProt P01116, G12D); assay: Assay of intracellular pERK1/2 (Thr202/Tyr204) phosphorylation in PANC-1 cells (KRAS G12D); conditions: pERK1/2, 2 days, read-out: PANC-1 (KRAS G12D) IC50
# T2 construct: pERK1/2 HTRF read-out
# T2 sequence (P01116 1-188 isoform P01116-2 G12D): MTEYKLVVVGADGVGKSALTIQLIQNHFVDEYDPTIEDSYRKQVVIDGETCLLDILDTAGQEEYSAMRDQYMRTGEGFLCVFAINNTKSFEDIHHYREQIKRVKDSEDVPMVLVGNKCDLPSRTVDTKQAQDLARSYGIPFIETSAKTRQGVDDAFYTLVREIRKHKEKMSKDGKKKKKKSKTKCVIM
# Summary of the method: as §1
# [3] = target: T3, pERK1/2 (Thr202/Tyr204), NCI-1H358 (KRAS G12C) (Homo sapiens, UniProt P01116, G12C); assay: Assay of intracellular pERK1/2 (Thr202/Tyr204) phosphorylation in NCI-H358 cells (KRAS G12C); conditions: pERK1/2, 2 days, read-out: NCI-H358 (KRAS G12C) IC50
# T3 construct: pERK1/2 HTRF read-out
# T3 sequence (P01116 1-188 isoform P01116-2 G12C): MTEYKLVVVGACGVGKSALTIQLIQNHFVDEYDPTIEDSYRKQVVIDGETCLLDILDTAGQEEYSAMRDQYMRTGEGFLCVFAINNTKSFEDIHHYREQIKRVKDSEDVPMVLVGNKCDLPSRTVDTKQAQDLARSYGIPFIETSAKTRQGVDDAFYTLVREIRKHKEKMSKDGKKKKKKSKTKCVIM
# Summary of the method: as §1
# T1 sequence (P01116 1-188 isoform P01116-2 G12V): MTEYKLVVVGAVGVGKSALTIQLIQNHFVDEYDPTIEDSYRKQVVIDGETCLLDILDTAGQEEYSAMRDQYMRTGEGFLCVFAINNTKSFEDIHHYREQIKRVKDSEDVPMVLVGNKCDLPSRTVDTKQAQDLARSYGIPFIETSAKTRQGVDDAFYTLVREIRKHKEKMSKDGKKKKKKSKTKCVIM
Structure (SMILES),IC50 [1],IC50 [2],IC50 [3]
"Cc1c(F)c(N)cc(-c2nc3c4c(nc(OC[C@@]56CCCN5C[C@H](F)C6)nc4c2F)N(C(C)c2cccnc2N)C[C@H](C)O3)c1C(F)(F)F (single isomer, unassigned) [Compound 253, 3-((R or S)-1-((S)-5-(5-amino-4-fluoro-3-methyl-2-(trifluoromethyl)phenyl)-4-fluoro-2-(((2R,7aS)-2-fluorotetrahydro-1H-pyrrolizin-7a(5H)-yl)methoxy)-8-methyl-8,9-dihydro-10H-7-oxa-1,3,6,10-tetraazacyclohepta[de]naphthalen-10-yl)ethyl)pyridin-2-amine]",> 100 nM,> 100 nM,> 100 nM
"Cc1c(F)c(N)cc(-c2nc3c4c(nc(OC[C@@]56CCCN5C[C@H](F)C6)nc4c2F)N(C(C)c2cccnc2N)[C@H](C)CO3)c1C(F)(F)F (single isomer, unassigned) [Compound 255, 3-((R or S)-1-((R)-5-(5-amino-4-fluoro-3-methyl-2-(trifluoromethyl)phenyl)-4-fluoro-2-(((2R,7aS)-2-fluorotetrahydro-1H-pyrrolizin-7a(5H)-yl)methoxy)-9-methyl-8,9-dihydro-10H-7-oxa-1,3,6,10-tetraazacyclohepta[de]naphthalen-10-yl)ethyl)pyridin-2-amine]",> 100 nM,> 100 nM,37 nM
"Cc1c(F)c(N)cc(-c2nc3c4c(nc(OC[C@@]56CCCN5C[C@H](F)C6)nc4c2F)N(C(C)c2cccnc2N)[C@H](C)CO3)c1C(F)(F)F (single isomer, unassigned) [Compound 256, 3-((R or S)-1-((R)-5-(5-amino-4-fluoro-3-methyl-2-(trifluoromethyl)phenyl)-4-fluoro-2-(((2R,7aS)-2-fluorotetrahydro-1H-pyrrolizin-7a(5H)-yl)methoxy)-9-methyl-8,9-dihydro-10H-7-oxa-1,3,6,10-tetraazacyclohepta[de]naphthalen-10-yl)ethyl)pyridin-2-amine]",> 100 nM,> 100 nM,> 100 nM
"Cc1ccnc(N)c1C(C)N1CCOc2nc(-c3cc(N)c(F)c(C)c3C(F)(F)F)c(F)c3nc(OC[C@@]45CCCN4C[C@H](F)C5)nc1c23 (single isomer, unassigned) [Compound 258, 3-((R or S)-1-(5-(5-amino-4-fluoro-3-methyl-2-(trifluoromethyl)phenyl)-4-fluoro-2-(((2R,7aS)-2-fluorotetrahydro-1H-pyrrolizin-7a(5H)-yl)methoxy)-8,9-dihydro-10H-7-oxa-1,3,6,10-tetraazacyclohepta[de]naphthalen-10-yl)ethyl)-4-methylpyridin-2-amine]",> 100 nM,> 100 nM,> 100 nM
"Cc1c(F)c(N)cc(-c2nc3c4c(nc(OC[C@@]56CCCN5C[C@H](F)C6)nc4c2F)N(C(C)c2cn(C)nc2N)CCO3)c1C(F)(F)F (single isomer, unassigned) [Compound 261, 4-((R or S)-1-(5-(5-amino-4-fluoro-3-methyl-2-(trifluoromethyl)phenyl)-4-fluoro-2-(((2R,7aS)-2-fluorotetrahydro-1H-pyrrolizin-7a(5H)-yl)methoxy)-8,9-dihydro-10H-7-oxa-1,3,6,10-tetraazacyclohepta[de]naphthalen-10-yl)ethyl)-1-methyl-1H-pyrazol-3-amine]",> 100 nM,> 100 nM,> 100 nM
"CNc1ncccc1C(C)N1CCOc2nc(-c3cc(N)c(F)c(C)c3C(F)(F)F)c(F)c3nc(OC[C@@]45CCCN4C[C@H](F)C5)nc1c23 (single isomer, unassigned) [Compound 264, 3-((R or S)-1-(5-(5-amino-4-fluoro-3-methyl-2-(trifluoromethyl)phenyl)-4-fluoro-2-(((2R,7aS)-2-fluorotetrahydro-1H-pyrrolizin-7a(5H)-yl)methoxy)-8,9-dihydro-10H-7-oxa-1,3,6,10-tetraazacyclohepta[de]naphthalen-10-yl)ethyl)-N-methylpyridin-2-amine]",> 100 nM,> 100 nM,93 nM
"CNc1ncccc1C(C)N1CCOc2nc(-c3cc(N)c(F)c(C)c3C(F)(F)F)c(F)c3nc(OC[C@@]45CCCN4C[C@H](F)C5)nc1c23 (single isomer, unassigned) [Compound 265, 3-((R or S)-1-(5-(5-amino-4-fluoro-3-methyl-2-(trifluoromethyl)phenyl)-4-fluoro-2-(((2R,7aS)-2-fluorotetrahydro-1H-pyrrolizin-7a(5H)-yl)methoxy)-8,9-dihydro-10H-7-oxa-1,3,6,10-tetraazacyclohepta[de]naphthalen-10-yl)ethyl)-N-methylpyridin-2-amine]",> 100 nM,> 100 nM,> 100 nM

# Next, values leading:
IC50 [1],IC50 [2],IC50 [3],Structure (SMILES)
> 100 nM,> 100 nM,> 100 nM,"Cc1ccc(C(C)N2CCOc3nc(-c4cc(N)c(F)c(C)c4C(F)(F)F)c(F)c4nc(OC[C@@]56CCCN5C[C@H](F)C6)nc2c34)c(N)n1 (single isomer, unassigned) [Compound 251, 3-((R or S)-1-(5-(5-amino-4-fluoro-3-methyl-2-(trifluoromethyl)phenyl)-4-fluoro-2-(((2R,7aS)-2-fluorotetrahydro-1H-pyrrolizin-7a(5H)-yl)methoxy)-8,9-dihydro-10H-7-oxa-1,3,6,10-tetraazacyclohepta[de]naphthalen-10-yl)ethyl)-6-methylpyridin-2-amine]"
10 nM,43 nM,2 nM,"Cc1c(F)c(N)cc(-c2nc3c4c(nc(OC[C@@]56CCCN5C[C@H](F)C6)nc4c2F)N(C(C)c2cccnc2N)C[C@H](C)O3)c1C(F)(F)F (single isomer, unassigned) [Compound 254, 3-((R or S)-1-((S)-5-(5-amino-4-fluoro-3-methyl-2-(trifluoromethyl)phenyl)-4-fluoro-2-(((2R,7aS)-2-fluorotetrahydro-1H-pyrrolizin-7a(5H)-yl)methoxy)-8-methyl-8,9-dihydro-10H-7-oxa-1,3,6,10-tetraazacyclohepta[de]naphthalen-10-yl)ethyl)pyridin-2-amine]"
6 nM,51 nM,2 nM,"Cc1ccnc(N)c1C(C)N1CCOc2nc(-c3cc(N)c(F)c(C)c3C(F)(F)F)c(F)c3nc(OC[C@@]45CCCN4C[C@H](F)C5)nc1c23 (single isomer, unassigned) [Compound 257, 3-((R or S)-1-(5-(5-amino-4-fluoro-3-methyl-2-(trifluoromethyl)phenyl)-4-fluoro-2-(((2R,7aS)-2-fluorotetrahydro-1H-pyrrolizin-7a(5H)-yl)methoxy)-8,9-dihydro-10H-7-oxa-1,3,6,10-tetraazacyclohepta[de]naphthalen-10-yl)ethyl)-4-methylpyridin-2-amine]"
65 nM,> 100 nM,30 nM,"Cc1c(F)c(N)cc(-c2nc3c4c(nc(OC[C@@]56CCCN5C[C@H](F)C6)nc4c2F)N([C@H](C)c2cn(C)nc2N)CCO3)c1C(F)(F)F (single isomer, unassigned) [Compound 260, 4-((R or S)-1-(5-(5-amino-4-fluoro-3-methyl-2-(trifluoromethyl)phenyl)-4-fluoro-2-(((2R,7aS)-2-fluorotetrahydro-1H-pyrrolizin-7a(5H)-yl)methoxy)-8,9-dihydro-10H-7-oxa-1,3,6,10-tetraazacyclohepta[de]naphthalen-10-yl)ethyl)-1-methyl-1H-pyrazol-3-amine]"
40 nM,35 nM,14 nM,"Cc1c(F)c(N)cc(-c2nc3c4c(nc(OC[C@@]56CCCN5C[C@H](F)C6)nc4c2F)N(C(C)c2cccnc2N)[C@@H](C)CO3)c1C(F)(F)F (single isomer, unassigned) [Compound 263, 3-((R or S)-1-((S)-5-(5-amino-4-fluoro-3-methyl-2-(trifluoromethyl)phenyl)-4-fluoro-2-(((2R,7aS)-2-fluorotetrahydro-1H-pyrrolizin-7a(5H)-yl)methoxy)-9-methyl-8,9-dihydro-10H-7-oxa-1,3,6,10-tetraazacyclohepta[de]naphthalen-10-yl)ethyl)pyridin-2-amine]"
0.6 nM,0.2 nM,0.3 nM,"Cc1cc(N)cc(-c2nc3c4c(nc(OC[C@@]56CCCN5C[C@H](F)C6)nc4c2F)N(C(C)c2cccnc2N)[C@@H](C)CO3)c1C(F)(F)F (single isomer, unassigned) [Compound 267]"
0.3 nM,0.6 nM,0.2 nM,"CC(c1cccnc1N)N1c2nc(OC[C@@]34CCCN3C[C@H](F)C4)nc3c(F)c(-c4cc(N)c(F)c(Cl)c4C(F)(F)F)nc(c23)OC[C@@H]1C (single isomer, unassigned) [Compound 269, 3-((R or S)-1-((S)-5-(5-amino-3-chloro-4-fluoro-2-(trifluoromethyl)phenyl)-4-fluoro-2-(((2R,7aS)-2-fluorotetrahydro-1H-pyrrolizin-7a(5H)-yl)methoxy)-9-methyl-8,9-dihydro-10H-7-oxa-1,3,6,10-tetraazacyclohepta[de]naphthalen-10-yl)ethyl)pyridin-2-amine]"
0.7 nM,0.3 nM,0.3 nM,"CC(c1cccnc1N)N1c2nc(OC[C@@]34CCCN3C[C@H](F)C4)nc3c(F)c(-c4cc(N)cc(Cl)c4C(F)(F)F)nc(c23)OC[C@@H]1C (single isomer, unassigned) [Compound 270, 3-((R or S)-1-((S)-5-(5-amino-3-chloro-2-(trifluoromethyl)phenyl)-4-fluoro-2-(((2R,7aS)-2-fluorotetrahydro-1H-pyrrolizin-7a(5H)-yl)methoxy)-9-methyl-8,9-dihydro-10H-7-oxa-1,3,6,10-tetraazacyclohepta[de]naphthalen-10-yl)ethyl)pyridin-2-amine]"

# From US20260356851A1, “TRICYCLIC COMPOUNDS AND USES THEREOF” (HUTCHMED LIMITED, priority 2023, published 2026)
